Measured values taken from patent US20100204203A1, “Chemical Compounds 637: Pyridopyrimidinediones as PDE4 Inhibitors” (priority 2007, published 2010).

Biological target: recombinant Human Phosphodiesterase B2 (PDE4B2) (Homo sapiens, UniProt Q07343)
Experiment: Human Phosphodiesterase B2 Radiometric Assay (yttrium silicate SPA beads, [3H]cyclic AMP)
Assay type: biochemical
Details: recombinant human PDE4B2, radiometric SPA assay, 8 nM [3H]cyclic AMP; read-out: PDE4B2 pIC50 (converted)
Outline: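 Compounds were preincubated 30 min at 30 °C with 0.1 mg/mL PDE4B2 in 50 mM HEPES pH 7.5, 8.3 mM MgCl2, 1.7 mM EGTA, 0.01% Brij 35. Then 8 nM [3H]cAMP was added for 20 min, stopped with yttrium silicate SPA beads plus 18 mM ZnSO4 capturing product 5′AMP; pIC50 by curve fitting.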

Sequence of recombinant Human Phosphodiesterase B2 (PDE4B2) (Q07343 1-564 isoform Q07343-2): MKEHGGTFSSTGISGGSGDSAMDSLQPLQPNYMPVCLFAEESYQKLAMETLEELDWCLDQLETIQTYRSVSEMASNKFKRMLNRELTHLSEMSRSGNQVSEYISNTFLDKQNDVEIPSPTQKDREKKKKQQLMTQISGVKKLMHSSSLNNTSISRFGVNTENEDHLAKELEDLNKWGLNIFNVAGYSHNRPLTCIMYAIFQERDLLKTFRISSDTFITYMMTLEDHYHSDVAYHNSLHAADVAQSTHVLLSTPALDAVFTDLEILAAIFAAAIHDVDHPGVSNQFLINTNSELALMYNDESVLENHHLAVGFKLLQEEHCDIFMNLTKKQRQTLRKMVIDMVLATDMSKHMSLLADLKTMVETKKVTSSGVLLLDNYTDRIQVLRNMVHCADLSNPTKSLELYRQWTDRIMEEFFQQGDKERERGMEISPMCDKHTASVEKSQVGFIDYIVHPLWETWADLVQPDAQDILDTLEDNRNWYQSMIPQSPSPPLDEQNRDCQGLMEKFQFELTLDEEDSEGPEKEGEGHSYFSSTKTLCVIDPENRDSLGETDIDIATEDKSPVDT

Point of comparison: O=c1c2cc(F)cnc2n(-c2cccc(-c3ccc(O)cc3CN3CCOCC3)c2)c(=O)n1[C@H]1CC[C@@H](NCCCc2ccccc2)CC1 [Example 248, 6-Fluoro-1-[4′-hydroxy-2′-(morpholin-4-ylmethyl)biphenyl-3-yl]-3-{cis-4-[(3-phenylpropyl)amino]cyclohexyl}pyrido[2,3-d]pyrimidine-2,4(1H,3H)-dione], IC50 1.26 nM. Against it:
- CC(C)N1CCN(Cc2ccc(-c3cccc(-n4c(=O)n([C@H]5CC[C@@H](NC(=O)CC6CCOCC6)CC5)c(=O)c5cc(F)cnc54)c3)cc2)CC1 [Example 234, N-{cis-4-[6-fluoro-1-{4′-[(4-isopropylpiperazin-1-yl)methyl]biphenyl-3-yl}-2,4-dioxo-1,4-di-hydropyrido[2,3-d]pyrimidin-3(2H)-yl]cyclohexyl}-2-(tetrahydro-2H-pyran-4-yl)acetamide] — 13-fold lower, 0.1 nM
- Cc1n[nH]cc1C(=O)N[C@H]1CC[C@@H](n2c(=O)c3cc(F)cnc3n(-c3cccc(-c4ccc(CN5CCN(C(C)C)CC5)cc4)c3)c2=O)CC1 [Example 235, N-{cis-4-[6-fluoro-1-{4′-[(4-isopropylpiperazin-1-yl)methyl]biphenyl-3-yl}-2,4-dioxo-1,4-di-hydropyrido[2,3-d]pyrimidin-3(2H)-yl]cyclohexyl}-3-methyl-1H-pyrazole-4-carboxamide] — 10-fold lower, 0.126 nM
- CC(C)N1CCN(Cc2ccc(-c3cccc(-n4c(=O)n([C@H]5CC[C@@H](NC(=O)C6CCCC6)CC5)c(=O)c5cc(F)cnc54)c3)cc2)CC1 [Example 236, N-{cis-4-[6-fluoro-1-{4′-[(4-isopropylpiperazin-1-yl)methyl]biphenyl-3-yl}-2,4-dioxo-1,4-di-hydropyrido[2,3-d]pyrimidin-3(2H)-yl]cyclohexyl}cyclo-pentanecarboxamide] — 10-fold lower, 0.126 nM
- CC(C)N1CCN(Cc2ccc(-c3cccc(-n4c(=O)n([C@H]5CC[C@@H](NC(=O)CN6CCCCC6)CC5)c(=O)c5cc(F)cnc54)c3)cc2)CC1 [Example 237, N-{cis-4-[6-fluoro-1-{4′-[(4-isopropylpiperazin-1-yl)methyl]biphenyl-3-yl}-2,4-dioxo-1,4-di-hydropyrido[2,3-d]pyrimidin-3(2H)-yl]cyclohexyl}-2-piperidin-1-ylacetamide] — 32-fold lower, 0.0398 nM
- CC(C)C(=O)N[C@H]1CC[C@@H](n2c(=O)c3cc(F)cnc3n(-c3cccc(-c4ccc(CN5CCN(C(C)C)CC5)cc4)c3)c2=O)CC1 [Example 238, N-{cis-4-[6-fluoro-1-{4′-[(4-isopropylpiperazin-1-yl)methyl]biphenyl-3-yl}-2,4-dioxo-1,4-di-hydropyrido[2,3-d]pyrimidin-3(2H)-yl]cyclohexyl}-2-methyl-propanamide] — 6.3-fold lower, 0.2 nM
- CC(C)N1CCN(Cc2ccc(-c3cccc(-n4c(=O)n([C@H]5CC[C@@H](NC(=O)c6nccn6C)CC5)c(=O)c5cc(F)cnc54)c3)cc2)CC1 [Example 239, N-{cis-4-[6-fluoro-1-{4′-[(4-isopropylpiperazin-1-yl)methyl]biphenyl-3-yl}-2,4-dioxo-1,4-di-hydropyrido[2,3-d]pyrimidin-3(2H)-yl]cyclohexyl}-1-methyl-1H-imidazole-2-carboxamide] — 4-fold lower, 0.316 nM
- Cc1oncc1C(=O)N[C@H]1CC[C@@H](n2c(=O)c3cc(F)cnc3n(-c3cccc(-c4ccc(CN5CCN(C(C)C)CC5)cc4)c3)c2=O)CC1 [Example 240, N-{cis-4-[6-fluoro-1-{4′-[(4-isopropylpiperazin-1-yl)methyl]biphenyl-3-yl}-2,4-dioxo-1,4-di-hydropyrido[2,3-d]pyrimidin-3(2H)-yl]cyclohexyl}-5-methyl-isoxazole-4-carboxamide] — 2.5-fold lower, 0.501 nM
- CCN(CC)CC(=O)N[C@H]1CC[C@@H](n2c(=O)c3cc(F)cnc3n(-c3cccc(-c4ccc(CN5CCN(C(C)C)CC5)cc4)c3)c2=O)CC1 [Example 241, N^2,N^2-diethyl-N-{cis-4-[6-fluoro-1-{4′-[(4-isopropylpiperazin-1-yl)methyl]biphenyl-3-yl}-2,4-dioxo-1,4-dihydro-pyrido[2,3-d]pyrimidin-3(2H)-yl]cyclohexyl} glycinamide] — 16-fold lower, 0.0794 nM
- Cc1cccc(C(=O)N[C@H]2CC[C@@H](n3c(=O)c4cc(F)cnc4n(-c4cccc(-c5ccc(CN6CCN(C(C)C)CC6)cc5)c4)c3=O)CC2)n1 [Example 242, N-{cis-4-[6-fluoro-1-{4′-[(4-isopropylpiperazin-1-yl)methyl]biphenyl-3-yl}-2,4-dioxo-1,4-di-hydropyrido[2,3-d]pyrimidin-3(2H)-yl]cyclohexyl}-6-methyl-pyridine-2-carboxamide] — 200-fold lower, 0.00631 nM
- Cc1cc(C(=O)N[C@H]2CC[C@@H](n3c(=O)c4cc(F)cnc4n(-c4cccc(-c5ccc(CN6CCN(C(C)C)CC6)cc5)c4)c3=O)CC2)no1 [Example 243, N-{cis-4-[6-fluoro-1-{4′-[(4-isopropylpiperazin-1-yl)methyl]biphenyl-3-yl}-2,4-dioxo-1,4-di-hydropyrido[2,3-d]pyrimidin-3(2H)-yl]cyclohexyl}-5-methyl-isoxazole-3-carboxamide] — 32-fold lower, 0.0398 nM
- Cc1nc(C(=O)N[C@H]2CC[C@@H](n3c(=O)c4cc(F)cnc4n(-c4cccc(-c5ccc(CN6CCN(C(C)C)CC6)cc5)c4)c3=O)CC2)cs1 [Example 244, N-{cis-4-[6-fluoro-1-{4′-[(4-isopropylpiperazin-1-yl)methyl]biphenyl-3-yl}-2,4-dioxo-1,4-di-hydropyrido[2,3-d]pyrimidin-3(2H)-yl]cyclohexyl}-2-methyl-1,3-thiazole-4-carboxamide] — 130-fold lower, 0.01 nM
- CC(C)N1CCN(Cc2ccc(-c3cccc(-n4c(=O)n([C@H]5CC[C@@H](NC(=O)c6ccsc6)CC5)c(=O)c5cc(F)cnc54)c3)cc2)CC1 [Example 245, N-{cis-4-[6-fluoro-1-{4′-[(4-isopropylpiperazin-1-yl)methyl]biphenyl-3-yl}-2,4-dioxo-1,4-di-hydropyrido[2,3-d]pyrimidin-3(2H)-yl]cyclohexyl}thiophene-3-carboxamide] — 63-fold lower, 0.02 nM
- O=c1c2cc(F)cnc2n(-c2cccc(-c3ccc(O)cc3CN3CCOCC3)c2)c(=O)n1[C@H]1CC[C@@H](NCc2cn3cc(F)ccc3n2)CC1 [Example 246] — 63-fold lower, 0.02 nM
- Cn1cc(CN[C@H]2CC[C@@H](n3c(=O)c4cc(F)cnc4n(-c4cccc(-c5ccc(O)cc5CN5CCOCC5)c4)c3=O)CC2)c(-c2ccccc2)n1 [Example 247, 6-Fluoro-1-[4′-hydroxy-2′-(morpholin-4-ylmethyl)biphenyl-3-yl]-3-(cis-4-{[(1-methyl-3-phenyl-1H-pyrazol-4-yl)methyl]amino}cyclohexyl)pyrido[2,3-d]pyrimidine-2,4(1H,3H)-dione] — 6.3-fold lower, 0.2 nM
- O=c1c2cc(F)cnc2n(-c2cccc(-c3ccc(O)cc3CN3CCOCC3)c2)c(=O)n1[C@H]1CC[C@@H](NCC2CC2)CC1 [Example 249, 3-{cis-4-[(Cyclopropylmethyl)amino]cyclohexyl}-6-fluoro-1-[4′-hydroxy-2′-(morpholin-4-ylmethyl)biphenyl-3-yl]pyrido[2,3-d]pyrimidine-2,4(1H,3H)-dione] — 5-fold higher, 6.31 nM
- O=c1c2cc(F)cnc2n(-c2cccc(-c3ccc(O)cc3CN3CCOCC3)c2)c(=O)n1[C@H]1CC[C@@H](NCc2cc(Cl)ccc2O)CC1 [Example 250, 3-{cis-4-[(5-Chloro-2-hydroxybenzyl)amino]cyclohexyl}-6-fluoro-1-[4′-hydroxy-2′-(morpholin-4-ylmethyl)biphenyl-3-yl]pyrido[2,3-d]pyrimidine-2,4(1H,3H)-dione] — 6.3-fold lower, 0.2 nM
- Cc1cc(CN[C@H]2CC[C@@H](n3c(=O)c4cc(F)cnc4n(-c4cccc(-c5ccc(O)cc5CN5CCOCC5)c4)c3=O)CC2)nn1C [Example 251, 3-(cis-4-{[(1,5-Dimethyl-1H-pyrazol-3-yl)methyl]amino}cyclohexyl)-6-fluoro-1-[4′-hydroxy-2′-(morpholin-4-ylmethyl)biphenyl-3-yl]pyrido[2,3-d]pyrimidine-2,4(1H,3H)-dione] — 13-fold lower, 0.1 nM
- O=c1c2cc(F)cnc2n(-c2cccc(-c3ccc(O)cc3CN3CCOCC3)c2)c(=O)n1[C@H]1CC[C@@H](NCc2cn3c(n2)CCCC3)CC1 [Example 252, 6-Fluoro-1-[4′-hydroxy-2′-(morpholin-4-ylmethyl)biphenyl-3-yl]-3-{cis-4-[(5,6,7,8-tetrahydroimidazo[1,2-a]pyridin-2-ylmethyl)amino]cyclohexyl}pyrido[2,3-d]pyrimidine-2,4(1H,3H)-dione] — 3.2-fold lower, 0.398 nM
- O=c1c2cc(F)cnc2n(-c2cccc(-c3ccc(O)cc3CN3CCSCC3)c2)c(=O)n1[C@H]1CC[C@@H](NCc2cn3cc(F)ccc3n2)CC1 [Example 253, 6-Fluoro-3-(cis-4-{[(6-fluoroimidazo[1,2-c]pyridin-2-yl)methyl]amino}cyclohexyl)-1-[4′-hydroxy-2′-(thiomorpholin-4-ylmethyl)biphenyl-3-yl]pyrido[2,3-d]pyrimidine-2,4(1H,3H)-dione] — 80-fold lower, 0.0158 nM
- O=c1c2cc(F)cnc2n(-c2cccc(-c3ccc(O)cc3CN3CCCOCC3)c2)c(=O)n1[C@H]1CC[C@@H](NCc2cn3cc(F)ccc3n2)CC1 [Example 254, 6-Fluoro-3-(cis-4-{[(6-fluoroimidazo[1,2-a]pyridin-2-yl)methyl]amino}cyclohexyl)-1-[4′-hydroxy-2′-(1,4-oxazepan-4-ylmethyl)biphenyl-3-yl]pyrido[2,3-d]pyrimidine-2,4(1H,3H)-dione] — 40-fold lower, 0.0316 nM
- O=c1c2cc(F)cnc2n(-c2cccc(-c3ccc(O)cc3CN3CCCCC3)c2)c(=O)n1[C@H]1CC[C@@H](NCc2cn3cc(F)ccc3n2)CC1 [Example 255, 6-Fluoro-3-(cis-4-{[(6-fluoroimidazo[1,2-c]pyridin-2-yl)methyl]amino}cyclohexyl)-1-[4′-hydroxy-2′-(piperidin-1-ylmethyl)biphenyl-3-yl]pyrido[2,3-d]pyrimidine-2,4(1H,3H)-dione] — 10-fold lower, 0.126 nM
- C[C@@H]1CN(Cc2cc(O)ccc2-c2cccc(-n3c(=O)n([C@H]4CC[C@@H](NCc5cn6cc(F)ccc6n5)CC4)c(=O)c4cc(F)cnc43)c2)C[C@H](C)O1 [Example 256] — 80-fold lower, 0.0158 nM
